Source: ChEMBL document CHEMBL1201862, “PubChem BioAssay data set” (2004)
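These data come from cells grown in 96-well plates and exposed to compound for 48 hours at five concentrations. Here, GI50 denotes the concentration required for 50% inhibition of growth.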 Calls of active or inactive are those of the source. Cut-off read from the data, not from the text of the source: active = GI50 up to about 1.1 µM and inactive = higher.

Key:
Experiment in all cases: growth of human tumour cells (NCI), 48 h
U-251 = system: U-251
SW-620 = system: SW-620
TK-10 = system: TK-10
SNB-19 = system: SNB-19
Hs-578T = system: Hs-578T
BT-549 = system: BT-549
HT-29 = system: HT-29
OVCAR-5 = system: OVCAR-5
HCC 2998 = system: HCC 2998
RXF 393 = system: RXF 393
DU-145 = system: DU-145
NCI-H226 = system: NCI-H226
OVCAR-8 = system: OVCAR-8
HOP-92 = system: HOP-92
786-0 = system: 786-0
MDA-MB-435 = system: MDA-MB-435
MDA-MB-231 = system: MDA-MB-231
NCI-H460 = system: NCI-H460
COLO 205 = system: COLO 205

Measured: GI50

COC(=O)[C@H]1COC(=O)N1
inactive: U-251 > 100 µM | SW-620 > 100 µM | TK-10 > 100 µM | SNB-19 > 100 µM | Hs-578T > 100 µM | BT-549 > 100 µM | HT-29 > 100 µM | OVCAR-5 > 100 µM | HCC 2998 > 100 µM | RXF 393 > 100 µM | DU-145 > 100 µM | NCI-H226 > 100 µM | OVCAR-8 > 100 µM | HOP-92 > 100 µM | 786-0 > 100 µM | MDA-MB-435 > 100 µM | MDA-MB-231 > 100 µM | NCI-H460 > 100 µM | COLO 205 > 100 µM

C[C@]12CCC(=O)C=C1CC[C@@H]1C2CC[C@]2(C)Nc3c(ncn3-c3ccc(F)cc3)CC12 (some centres not stated)
inactive: U-251 20.9 µM | SW-620 31.6 µM | TK-10 27.7 µM | SNB-19 49.2 µM | Hs-578T 16.3 µM | BT-549 20.3 µM | HT-29 18.9 µM | OVCAR-5 40.7 µM | HCC 2998 20.2 µM | RXF 393 5.56 µM | DU-145 23.7 µM | NCI-H226 49.2 µM | OVCAR-8 35.2 µM | HOP-92 33.2 µM | 786-0 31 µM | MDA-MB-435 12.6 µM | MDA-MB-231 42.5 µM | NCI-H460 21.7 µM | COLO 205 15.7 µM

CC(C)=CCC/C(C)=C/Cc1cc(/C=C/c2cc(O)c(CC=C(C)C)c(O)c2)cc(O)c1O [MAPPAIN]
inactive: U-251 2.18 µM | SW-620 3.54 µM | TK-10 3.32 µM | SNB-19 4.5 µM | Hs-578T 10.8 µM | BT-549 3.29 µM | HT-29 4.18 µM | OVCAR-5 4.36 µM | HCC 2998 2.13 µM | RXF 393 2.46 µM | DU-145 13.7 µM | NCI-H226 8.59 µM | OVCAR-8 3.6 µM | HOP-92 3.93 µM | 786-0 4.6 µM | MDA-MB-435 2.55 µM | MDA-MB-231 11.2 µM | NCI-H460 2.68 µM | COLO 205 17.3 µM

O=c1[nH]/c(=C/c2ccc(OCc3ccccc3)cn2)c(=O)[nH]/c1=C/c1ccc([N+](=O)[O-])cc1
inactive: U-251 > 65.3 µM | SW-620 > 100 µM | TK-10 > 100 µM | SNB-19 > 64.7 µM | Hs-578T 35.8 µM | BT-549 54.7 µM | HT-29 > 100 µM | OVCAR-5 > 100 µM | HCC 2998 > 100 µM | RXF 393 > 80.2 µM | DU-145 > 100 µM | NCI-H226 > 100 µM | OVCAR-8 > 100 µM | HOP-92 > 100 µM | 786-0 > 100 µM | MDA-MB-435 > 100 µM | MDA-MB-231 > 89.3 µM | NCI-H460 > 100 µM | COLO 205 > 100 µM

O=c1c2ncn(CCCl)c2n(-c2ccccc2)c(=S)n1-c1ccccc1
inactive: U-251 > 100 µM | SW-620 > 100 µM | TK-10 > 100 µM | SNB-19 > 100 µM | Hs-578T 69.5 µM | BT-549 > 100 µM | HT-29 > 100 µM | OVCAR-5 > 100 µM | HCC 2998 > 100 µM | RXF 393 > 100 µM | DU-145 > 100 µM | NCI-H226 > 100 µM | OVCAR-8 > 100 µM | HOP-92 > 100 µM | 786-0 > 100 µM | MDA-MB-435 > 100 µM | MDA-MB-231 > 100 µM | NCI-H460 > 100 µM | COLO 205 > 100 µM

COc1ccc(N2CCN(c3ccc4c(c3)NCC(=O)N4)CC2)cc1
inactive: U-251 25.6 µM | SW-620 61.5 µM | TK-10 41.8 µM | SNB-19 59.4 µM | Hs-578T 25.3 µM | BT-549 34 µM | HT-29 > 100 µM | OVCAR-5 54.7 µM | HCC 2998 > 100 µM | DU-145 > 100 µM | NCI-H226 > 100 µM | OVCAR-8 26.7 µM | HOP-92 23.5 µM | 786-0 32.2 µM | MDA-MB-435 > 100 µM | MDA-MB-231 34.4 µM | NCI-H460 > 100 µM | COLO 205 43 µM

CCCCC1C(=O)N(c2ccc(S(=O)(=O)Nc3ccccn3)cc2)N(c2ccc(O)c(C(=O)O)c2)C1=O (configuration not stated)
inactive: U-251 > 100 µM | SW-620 > 100 µM | SNB-19 > 100 µM | Hs-578T > 100 µM | BT-549 > 100 µM | HT-29 > 100 µM | OVCAR-5 > 100 µM | HCC 2998 > 100 µM | RXF 393 > 100 µM | DU-145 > 100 µM | NCI-H226 > 100 µM | OVCAR-8 > 100 µM | HOP-92 > 100 µM | 786-0 > 100 µM | MDA-MB-435 > 100 µM | MDA-MB-231 > 100 µM | NCI-H460 > 100 µM | COLO 205 > 100 µM

COc1ccc(-n2c(N)c(C#N)c(C#N)c2-c2ccco2)cc1
inactive: U-251 > 100 µM | SW-620 > 100 µM | TK-10 > 100 µM | SNB-19 > 100 µM | Hs-578T 39.7 µM | BT-549 9.23 µM | HT-29 > 100 µM | OVCAR-5 > 100 µM | HCC 2998 > 100 µM | RXF 393 > 100 µM | DU-145 > 100 µM | NCI-H226 > 100 µM | OVCAR-8 > 100 µM | HOP-92 16.8 µM | 786-0 > 100 µM | MDA-MB-435 > 100 µM | MDA-MB-231 > 100 µM | COLO 205 > 100 µM

CCC(C#N)N(Cc1ccc(CN(C(=O)c2ccccc2)C(C#N)CC)cc1)C(=O)c1ccccc1 (configuration not stated)
inactive: U-251 22.6 µM | SW-620 28.5 µM | TK-10 12.9 µM | SNB-19 27 µM | Hs-578T 21.5 µM | BT-549 27.5 µM | HT-29 14.7 µM | OVCAR-5 37.8 µM | HCC 2998 14.6 µM | RXF 393 28.1 µM | DU-145 28.6 µM | NCI-H226 32.5 µM | OVCAR-8 31.6 µM | HOP-92 13.2 µM | 786-0 19.2 µM | MDA-MB-435 25.5 µM | MDA-MB-231 23.7 µM | COLO 205 14.7 µM

O=c1[nH]c(=O)c2c([nH]1)[nH]c1ccc(Br)cc12
inactive: SW-620 > 100 µM | TK-10 > 100 µM | SNB-19 > 100 µM | Hs-578T 45.3 µM | BT-549 > 100 µM | HT-29 > 100 µM | OVCAR-5 > 100 µM | HCC 2998 28 µM | RXF 393 > 100 µM | DU-145 > 100 µM | NCI-H226 > 100 µM | OVCAR-8 > 100 µM | HOP-92 62.5 µM | 786-0 66.2 µM | MDA-MB-435 > 100 µM | MDA-MB-231 93.5 µM | COLO 205 > 100 µM

Cc1nc(O)nc(NNCc2ccc(Cl)cc2)c1C(=O)Nc1ccc(Cl)cc1
inactive: U-251 > 100 µM | SW-620 > 100 µM | TK-10 > 100 µM | SNB-19 > 100 µM | Hs-578T > 100 µM | BT-549 > 100 µM | OVCAR-5 > 100 µM | HCC 2998 > 100 µM | RXF 393 > 100 µM | DU-145 29.4 µM | NCI-H226 > 100 µM | OVCAR-8 > 100 µM | HOP-92 > 100 µM | 786-0 > 100 µM | MDA-MB-435 88.1 µM | MDA-MB-231 > 100 µM | NCI-H460 > 100 µM | COLO 205 > 100 µM
